Results published in patent US9359372B2, “Hexahydrodibenzo[a,g]quinolizine compound, preparation method thereof, pharmaceutical composition and use thereof” (SHANGHAI INSTITUTE OF MATERIA MEDICA, CHINESE ACADEMY OF …, priority 2011, dated 2016).
Where “and” joins values, the source holds several entries; their conditions need not be identical. Identical values can stand only once. Blank lines part the entries; values can stand above or below the molecule they belong to.

Columns and labels:
[1] = molecular target: D2 dopamine receptor (Rattus norvegicus (Rat), UniProt P61169); test: Affinity on dopamine D2 receptor, competition with [3H] Spiperone; type: binding; set-up: D2 receptor inhibition ratio (%): concentration or dose not given beside the values
Procedure: (§1) (1). Determination of the Affinity of Hexahydrodibenzo[a,g]Quinolizine Compound of General Formula I and Derivatives Thereof on Dopamine D1, Dopamine D2, 5-HT1A, and 5-HT2A Receptor.
(§2) 1) The Experimental Method
(§3) Different concentrations (10^−5 M-10^−11 M) of the compound of the invention and corresponding isotope receptor ligand as well as receptor protein were loaded into the reaction tube and incubated in 30° C. water bath for 60 minutes. The reaction was terminated in a refrigerator. The reaction mixture was put in a Millipore filter (millipore) cell sample collector, filtered through suction filtration using GF/C glass fiber filter paper, and dried. The resulting sample was placed into 0.5 mL tube. 500 μL liquid scintillation fluid was added and intensity of radioactivity was determined by counting.
(§4) (1) Construction of receptor and materials for cell culture: Escherichia coli. DH5α strain; insect virus transfer vector pVL1393 plasmid; BaculoGold linear Chinese baculovirus DNA, purchased from ParMingen company; mkD1RcDNA; rD2R cDNA; various restriction endonucleases, TaqDNA polymerase, T4 ligase, etc., LB medium; insect cell culture TNM-FH.
(§5) (2) the Experimental Materials for Receptor Binding
(§6) Firstly, the above […] are dissolved in DMSO and then diluted with double distilled water to the appropriate concentration (10^−5 M-10^−11 M).
(§7) (+) Butaclamo purchased from RBI company, GF/C glass fiber filter paper purchased from Whatman Co., scintillation fluid (dopamine D1, D2 receptors)/liposoluble scintillation fluid (5-HT1A, 5-HT2A receptor), Beckman LS-6500 multi-function liquid scintillation counter.

[2] = molecular target: dopamine D1 receptor (Macaca mulatta (Rhesus macaque), UniProt O77680); test: Affinity on dopamine D1 receptor, competition with [3H] SCH23390; type: binding; set-up: D1 receptor inhibition ratio (%): concentration or dose not given beside the values
Procedure: as §1, §2, §3, §4, §5, §6, §7

[3] = In vivo pharmacokinetic experiment of rats (gavage and intravenous); set-up: species or system SD rats; details: rat
Procedure: Pharmacokinetic properties of Compound DC037029 in rats were preliminarily studied in this experiment. After the tested compound was delivered to rats by intravenous administration and intragastric administration, respectively, the whole blood samples were collected at different time point and the plasma was separated. The concentration of compound in plasma was determined by liquid chromatography-tandem mass spectrometry.
Six healthy male SD rats with the weight of 200-220 g were randomly divided into 2 groups, each of which has three rats. The rats in each group were administrated with the tested compound by gavage or intravenous injection, respectively.
The compound was dissolved in 10% DMSO/10% Tween/[…].
The rats are fasted for 12 h and can drink water ad libitum before test. 2 h after dosing, the rats ate all together. The time point for collecting blood samples and the sample processing are listed as follows.
Intragastric administration time: 0.25, 0.5, 1.0, 2.0, 3.0, 5.0, 7.0, 9.0 and 24 h after administration.
Intravenous administration time: 5 min, 0.25, 0.5, 1.0, 2.0, 3.0, 5.0, 7.0, 9.0 and 24 h after administration. At above time point, 0.3 ml venous blood was taken from retrobulbar venous plexus of the rat and loaded into heparinization tube. After centrifuged at 1000 rpm for 5 min, the plasma was separated and frozen at −20° C. in a refrigerator.

[4] = gavage 20 mg/kg, individual animals
[5] = intravenous injection 10 mg/kg, average
[6] = intravenous injection 10 mg/kg, individual animals

Sequence of dopamine D1 receptor (O77680 whole entry): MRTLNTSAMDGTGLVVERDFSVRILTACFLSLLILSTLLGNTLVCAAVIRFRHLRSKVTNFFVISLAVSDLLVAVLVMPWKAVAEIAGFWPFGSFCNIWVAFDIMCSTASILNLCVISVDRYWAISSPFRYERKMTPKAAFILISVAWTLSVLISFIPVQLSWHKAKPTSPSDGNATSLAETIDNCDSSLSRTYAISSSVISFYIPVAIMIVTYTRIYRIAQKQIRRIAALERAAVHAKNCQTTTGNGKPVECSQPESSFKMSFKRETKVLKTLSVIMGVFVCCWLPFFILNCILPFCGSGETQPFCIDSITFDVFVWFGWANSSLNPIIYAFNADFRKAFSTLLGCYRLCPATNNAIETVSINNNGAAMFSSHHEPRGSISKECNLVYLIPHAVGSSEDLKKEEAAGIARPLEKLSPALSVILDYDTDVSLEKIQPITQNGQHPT
Sequence of D2 dopamine receptor (P61169 whole entry): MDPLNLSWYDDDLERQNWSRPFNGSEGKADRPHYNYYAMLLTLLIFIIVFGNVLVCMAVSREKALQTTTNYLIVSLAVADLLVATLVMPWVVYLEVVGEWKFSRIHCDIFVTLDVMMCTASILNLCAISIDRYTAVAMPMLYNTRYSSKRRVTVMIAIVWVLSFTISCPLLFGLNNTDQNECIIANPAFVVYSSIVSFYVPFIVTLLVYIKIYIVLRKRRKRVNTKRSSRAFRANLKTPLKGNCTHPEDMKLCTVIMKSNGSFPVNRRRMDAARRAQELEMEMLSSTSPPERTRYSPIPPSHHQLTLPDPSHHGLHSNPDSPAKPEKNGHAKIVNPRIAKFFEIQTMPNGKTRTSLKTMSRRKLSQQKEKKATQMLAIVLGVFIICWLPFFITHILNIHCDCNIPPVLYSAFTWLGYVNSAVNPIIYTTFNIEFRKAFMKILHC

SMILES: COc1cc2c(cc1OC)CN1CCc3cc(OC)c(OC)cc3C1C2 (racemic) [DC037001, (±)-2,3,10,11-tetramethoxy-5,8,13,13a-tetrahydro-6H-dibenzo[a,g]quinolizine]
D2 receptor inhibition ratio (%) [1]: 14.7% | D1 receptor inhibition ratio (%) [2]: 58.95%

SMILES: COc1ccc2c(c1)CCN1Cc3cc(OC)c(OC)cc3CC21 (racemic) [DC037009, (±)-3,10,11-trimethoxy-5,8,13,13a-tetrahydro-6H-dibenzo[a,g]quinolizine]
D2 receptor inhibition ratio (%) [1]: 0.35% | D1 receptor inhibition ratio (%) [2]: −13.6%

SMILES: COc1cc2c(cc1OC)C1Cc3cc4c(cc3CN1CC2)OCO4 (racemic) [DC037014, (±)-2,3-bimethoxy-10,11-methylenedioxy-5,8,13,13a-tetrahydro-6H-dibenzo[a,g]quinolizine]
D2 receptor inhibition ratio (%) [1]: 25.8% | D1 receptor inhibition ratio (%) [2]: 58.2%

SMILES: COc1cc2c(cc1OC)CN1CCc3cc4c(cc3C1C2)OCO4 (racemic) [DC037021, (±)-2,3-methylenedioxy-10,11-bimethoxy-5,8,13,13a-tetrahydro-6H-dibenzo[a,g]quinolizine]
D2 receptor inhibition ratio (%) [1]: 44.5% | D1 receptor inhibition ratio (%) [2]: 56.5%

SMILES: COc1ccc(OC)c2c1C[C@H]1c3cc4c(cc3CCN1C2)OCO4 [DC037013, S-(−)-2,3-methylenedioxy-9,12-bimethoxy-5,8,13,13a-tetrahydro-6H-dibenzo[a,g]quinolizine]
IC50 [2]: 47.9 nM | Ki [2]: 23.6 nM

The next lines start with results.

D2 receptor inhibition ratio (%) [1]: 27.05% | D1 receptor inhibition ratio (%) [2]: 77.95%
SMILES: COc1cc2c(cc1OC)C1Cc3cc(OC)c(OC)c(OC)c3CN1CC2 (racemic) [DC037002, (±)-2,3,9,10,11-pentamethoxyl-5,8,13,13a-tetrahydro-6H-dibenzo[a,g]quinolizine]

D2 receptor inhibition ratio (%) [1]: 49.05% | D1 receptor inhibition ratio (%) [2]: 87.65% | IC50 [2]: 2030 nM | Ki [2]: 1000 nM
SMILES: COc1ccc2c(c1)CCN1Cc3c(cc(OC)c(OC)c3OC)CC21 (racemic) [DC037007, (±)-3,9,10,11-tetramethoxy-5,8,13,13a-tetrahydro-6H-dibenzo[a,g]quinolizine]

D2 receptor inhibition ratio (%) [1]: 10.6% | D1 receptor inhibition ratio (%) [2]: 89.0% | IC50 [2]: 1010 nM | Ki [2]: 498 nM
SMILES: COc1cc2c(cc1OC)C1Cc3cc(O)c(O)cc3CN1CC2 (racemic) [DC037022, (±)-2,3-bimethoxy-10,11-bihydroxy-5,8,13,13a-tetrahydro-6H-dibenzo[a,g]quinolizine]

D2 receptor inhibition ratio (%) [1]: 48.0% | D1 receptor inhibition ratio (%) [2]: 91.75% | IC50 [2]: 648 nM | Ki [2]: 320 nM
SMILES: COc1cc2c(cc1OC)[C@@H]1Cc3cc(OC)c(OC)c(OC)c3CN1CC2 [DC037006, S-(−)-2,3,9,10,11-pentamethoxyl-5,8,13,13a-tetrahydro-6H-dibenzo[a,g]quinolizine]

F (absolute bioavailability) ([3]; gavage 20 mg/kg): 34.2% | Plasma concentration ([3]; gavage 20 mg/kg, 0.25 h, average): 392 ng/mL | Plasma concentration ([3]; gavage 20 mg/kg, 0.25 h, individual animals): 268 ng/mL and 416 ng/mL and 493 ng/mL | Plasma concentration ([3]; gavage 20 mg/kg, 0.5 h, average): 445 ng/mL | Plasma concentration ([3]; gavage 20 mg/kg, 0.5 h, individual animals): 289 ng/mL and 494 ng/mL and 553 ng/mL | Plasma concentration ([3]; gavage 20 mg/kg, 1.0 h, average): 420 ng/mL | Plasma concentration ([3]; gavage 20 mg/kg, 1.0 h, individual animals): 230 ng/mL and 455 ng/mL and 575 ng/mL | Plasma concentration ([3]; gavage 20 mg/kg, 2.0 h, average): 345 ng/mL | Plasma concentration ([3]; gavage 20 mg/kg, 2.0 h, individual animals): 218 ng/mL and 326 ng/mL and 492 ng/mL | Plasma concentration ([3]; gavage 20 mg/kg, 3.0 h, average): 289 ng/mL | Plasma concentration ([3]; gavage 20 mg/kg, 3.0 h, individual animals): 231 ng/mL and 207 ng/mL and 431 ng/mL | Plasma concentration ([3]; gavage 20 mg/kg, 5.0 h, average): 266 ng/mL | Plasma concentration ([3]; gavage 20 mg/kg, 5.0 h, individual animals): 233 ng/mL and 236 ng/mL and 330 ng/mL | Plasma concentration ([3]; gavage 20 mg/kg, 7.0 h, average): 122 ng/mL | Plasma concentration ([3]; gavage 20 mg/kg, 7.0 h, individual animals): 169 ng/mL and 80.3 ng/mL and 118 ng/mL | Plasma concentration ([3]; gavage 20 mg/kg, 9.0 h, average): 82.2 ng/mL | Plasma concentration ([3]; gavage 20 mg/kg, 9.0 h, individual animals): 91.9 ng/mL and 41.3 ng/mL and 113 ng/mL | Plasma concentration ([3]; gavage 20 mg/kg, 24.0 h, average): 4.28 ng/mL | Plasma concentration ([3]; gavage 20 mg/kg, 24.0 h, individual animals): 9.67 ng/mL and 1.26 ng/mL and 1.90 ng/mL | AUC0-t ([3]; gavage 20 mg/kg, average): 2867 ± 798 ng·h/mL and 2867 ng·h/mL | AUC0-∞ ([3]; gavage 20 mg/kg, average): 2891 ng·h/mL | Cmax ([3]; gavage 20 mg/kg, average): 453 ± 147 ng/mL and 453 ng/mL | MRT ([3]; gavage 20 mg/kg, average): 5.04 h | Tmax ([3]; gavage 20 mg/kg, average): 0.67 ± 0.29 h and 0.67 h | t1/2 ([3]; gavage 20 mg/kg, average): 3.26 ± 0.82 h and 3.26 h | Cmax [3, 4]: 575 ng/mL and 289 ng/mL and 494 ng/mL | MRT [3, 4]: 4.67 h and 6.45 h and 4.00 h | Tmax [3, 4]: 1.00 h and 0.50 h (2×) | t1/2 [3, 4]: 2.70 h and 4.20 h and 2.89 h | Plasma concentration ([3]; intravenous injection 10 mg/kg, 0.083 h, average): 4194 ng/mL | Plasma concentration ([3]; intravenous injection 10 mg/kg, 0.083 h, individual animals): 4576 ng/mL and 4169 ng/mL and 3837 ng/mL | Plasma concentration ([3]; intravenous injection 10 mg/kg, 0.25 h, average): 2883 ng/mL | Plasma concentration ([3]; intravenous injection 10 mg/kg, 0.25 h, individual animals): 3010 ng/mL and 2766 ng/mL and 2874 ng/mL | Plasma concentration ([3]; intravenous injection 10 mg/kg, 0.5 h, average): 1942 ng/mL | Plasma concentration ([3]; intravenous injection 10 mg/kg, 0.5 h, individual animals): 2055 ng/mL and 1788 ng/mL and 1984 ng/mL | Plasma concentration ([3]; intravenous injection 10 mg/kg, 1.0 h, average): 1207 ng/mL | Plasma concentration ([3]; intravenous injection 10 mg/kg, 1.0 h, individual animals): 1211 ng/mL and 1047 ng/mL and 1365 ng/mL | Plasma concentration ([3]; intravenous injection 10 mg/kg, 2.0 h, average): 571 ng/mL | Plasma concentration ([3]; intravenous injection 10 mg/kg, 2.0 h, individual animals): 590 ng/mL and 527 ng/mL and 596 ng/mL | Plasma concentration ([3]; intravenous injection 10 mg/kg, 3.0 h, average): 255 ng/mL | Plasma concentration ([3]; intravenous injection 10 mg/kg, 3.0 h, individual animals): 228 ng/mL and 294 ng/mL and 243 ng/mL | Plasma concentration ([3]; intravenous injection 10 mg/kg, 5.0 h, average): 75.3 ng/mL | Plasma concentration ([3]; intravenous injection 10 mg/kg, 5.0 h, individual animals): 65.0 ng/mL and 83.7 ng/mL and 77.2 ng/mL | Plasma concentration ([3]; intravenous injection 10 mg/kg, 7.0 h, average): 20.7 ng/mL | Plasma concentration ([3]; intravenous injection 10 mg/kg, 7.0 h, individual animals): 19.2 ng/mL and 21.1 ng/mL and 21.7 ng/mL | Plasma concentration ([3]; intravenous injection 10 mg/kg, 9.0 h, average): 8.00 ng/mL | Plasma concentration ([3]; intravenous injection 10 mg/kg, 9.0 h, individual animals): 7.31 ng/mL and 9.26 ng/mL and 7.41 ng/mL | Plasma concentration ([3]; intravenous injection 10 mg/kg, 24.0 h, average): 1.76 ng/mL | Plasma concentration ([3]; intravenous injection 10 mg/kg, 24.0 h, individual animals): 2.26 ng/mL and 1.61 ng/mL and 1.41 ng/mL | AUC0-t [3, 5]: 4196 ± 141 ng·h/mL and 4196 ng·h/mL | AUC0-∞ [3, 5]: 4210 ng·h/mL | CLz (plasma clearance rate CL) [3, 5]: 39.7 ± 1.3 mL/min/kg and 39.7 mL/min/kg | MRT [3, 5]: 1.47 h | Vss (steady state distribution volume) [3, 5]: 3.49 ± 0.24 L/kg and 3.49 L/kg | t1/2 [3, 5]: 5.44 ± 0.85 h and 5.44 h | MRT [3, 6]: 1.42 h and 1.46 h and 1.53 h | Vss [3, 6]: 3.33 L/kg and 3.38 L/kg and 3.78 L/kg | t1/2 [3, 6]: 4.88 h and 6.42 h and 5.01 h | IC50 [2]: 8.19 nM | Ki [2]: 4.2 nM | affinity on dopamine D1 receptor (in words) ([2]; summary of the tables): strong affinity
SMILES: COc1cc2c(cc1O)[C@@H]1Cc3cc4c(cc3CN1CC2)OCO4 [DC037029, S-(−)-2-hydroxy-3-methoxy-10,12-methylenedioxy-5,8,13,13a-tetrahydro-6H-dibenzo[a,g]quinolizine]
AUC0-t [3, 4]: 3771 ng·h/mL and 2570 ng·h/mL and 2260 ng·h/mL | AUC0-∞ [3, 4]: 3779 ng·h/mL and 2629 ng·h/mL and 2265 ng·h/mL | AUC0-t [3, 6]: 4262 ng·h/mL and 4292 ng·h/mL and 4034 ng·h/mL | AUC0-∞ [3, 6]: 4272 ng·h/mL and 4313 ng·h/mL and 4046 ng·h/mL | CLz [3, 6]: 39 mL/min/kg and 38.7 mL/min/kg and 41.2 mL/min/kg
